Reference: US20240197593A1, “CLEANSING COMPOSITION FOR FEMALE INTIMATE HYGIENE” (Conopco, Inc., d/b/a UNILEVER, priority 2021, published 2024)
Read-outs that look alike come from different tables or passages of the source.

System: human cadaver skin
Details: normalized against time zero reading, average of 6 cells
Excerpt: Electrical impedance is a proxy indicator of change in skin permeability.
The impedance reading at each cell at different time points was normalized against the time zero-minute reading of that cell. For each test formulation, the impedance reading of each time point is the average normalized value of the 6 repeat cells at that time point. Note: SDS=sodium dodecyl sulphate.

## CCCCCCCCCCCCOS(=O)(=O)[O-].[Na+] [SDS, sodium dodecyl sulphate]
Time 0 minutes
  normalized electrical impedance: 1.00
Time 5 minutes
  normalized electrical impedance: 0.94
Time 10 minutes
  normalized electrical impedance: 0.90
Time 15 minutes
  normalized electrical impedance: 0.86
Time 30 minutes
  normalized electrical impedance: 0.76
